Target: T1, Dipeptidyl peptidase-IV (DPP-IV) (Homo sapiens, UniProt P27487)
T1 construct: gene DPP4
Test: Fluorogenic enzyme inhibition assay (Cayman DPP-IV inhibitor screening kit […], Gly-Pro-AMC substrate)
Format: biochemical

T1 sequence (P27487 39-766): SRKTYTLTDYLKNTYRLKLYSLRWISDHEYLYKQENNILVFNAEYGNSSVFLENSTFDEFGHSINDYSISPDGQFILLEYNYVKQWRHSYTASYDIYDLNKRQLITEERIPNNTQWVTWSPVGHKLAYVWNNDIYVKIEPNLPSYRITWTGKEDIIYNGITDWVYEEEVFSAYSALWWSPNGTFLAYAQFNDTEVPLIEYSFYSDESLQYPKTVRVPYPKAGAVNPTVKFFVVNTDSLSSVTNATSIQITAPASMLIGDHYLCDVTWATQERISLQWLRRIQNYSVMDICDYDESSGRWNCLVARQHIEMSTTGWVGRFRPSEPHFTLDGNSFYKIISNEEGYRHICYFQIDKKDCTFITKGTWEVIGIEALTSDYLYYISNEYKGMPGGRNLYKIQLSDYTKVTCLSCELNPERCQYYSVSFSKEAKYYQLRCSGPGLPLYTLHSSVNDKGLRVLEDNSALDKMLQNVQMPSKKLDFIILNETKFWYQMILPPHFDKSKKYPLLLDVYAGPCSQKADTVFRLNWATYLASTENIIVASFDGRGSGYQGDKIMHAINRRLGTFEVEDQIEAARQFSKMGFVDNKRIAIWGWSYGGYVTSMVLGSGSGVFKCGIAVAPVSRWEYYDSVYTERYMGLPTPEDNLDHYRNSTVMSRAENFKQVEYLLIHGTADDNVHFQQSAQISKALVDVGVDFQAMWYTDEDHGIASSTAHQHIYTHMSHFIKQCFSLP

## COc1cc(/C=C/C(=O)COC(=O)/C=C/c2ccc(O)c(OC)c2)ccc1O [CA, Calebin A]
  IC50: 6.09 ± 0.41 µM

Reference: PMC8642699, “Dipeptidyl peptidase-IV inhibitory action of Calebin A: An in silico and in vitro analysis” (Journal of Ayurveda and Integrative Medicine, 2021)
